Reference: ChEMBL document CHEMBL6121069, “A Medicinal Chemistry Perspective on Protein Tyrosine Phosphatase Nonreceptor Type 2 in Tumor Immunology” (J Med Chem, 2025)
Each block holds one molecule with its values, some of them ahead of it.

Tests used:
[1] = target: T1, Tyrosine-protein phosphatase non-receptor type 2 (Homo sapiens, UniProt P17706)
T1 sequence (P17706 whole entry): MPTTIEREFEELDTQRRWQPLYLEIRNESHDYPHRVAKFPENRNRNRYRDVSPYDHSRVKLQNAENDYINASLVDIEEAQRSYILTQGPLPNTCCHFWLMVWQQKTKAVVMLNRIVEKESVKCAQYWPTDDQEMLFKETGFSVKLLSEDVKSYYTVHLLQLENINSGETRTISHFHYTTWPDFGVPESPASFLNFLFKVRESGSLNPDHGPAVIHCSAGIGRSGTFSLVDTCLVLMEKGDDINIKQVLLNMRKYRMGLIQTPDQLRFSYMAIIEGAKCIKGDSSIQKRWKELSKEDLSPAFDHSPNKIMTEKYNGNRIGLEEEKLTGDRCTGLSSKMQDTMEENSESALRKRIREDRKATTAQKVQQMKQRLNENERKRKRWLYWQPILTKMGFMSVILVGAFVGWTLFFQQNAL
Description: Inhibition of wild type FLAG-tagged PTPN2 (unknown origin) extracted from Escherichia coli BL21 (DE3) by micro-plate reader assay

[2] = target: Protein cereblon/Tyrosine-protein phosphatase non-receptor type 2 (Homo sapiens, UniProt P17706+Q96SW2); details: hek293t
Description: PROTAC activity at PTPN2/CRBN in HEK293T cells assessed as induction of PTPN2 degradation incubated for 24 hrs by Nan-glo HiBiT lytic assay

B16-F10 [3] = assay: animal or person; details: Mus musculus, B16-F10, 360 h, read-out: TGI
[4] = target: T1, Tyrosine-protein phosphatase non-receptor type 2; remark: listed apart in the source
Description: Inhibition of PTPN2 (unknown origin) using DiFMUP as substrate pre-incubated for 15 mins and measured for 30 mins by fluorescence based analysis

[5] = target: T2, Tyrosine-protein phosphatase non-receptor type 1 (Homo sapiens, UniProt P18031)
T2 sequence (P18031 whole entry): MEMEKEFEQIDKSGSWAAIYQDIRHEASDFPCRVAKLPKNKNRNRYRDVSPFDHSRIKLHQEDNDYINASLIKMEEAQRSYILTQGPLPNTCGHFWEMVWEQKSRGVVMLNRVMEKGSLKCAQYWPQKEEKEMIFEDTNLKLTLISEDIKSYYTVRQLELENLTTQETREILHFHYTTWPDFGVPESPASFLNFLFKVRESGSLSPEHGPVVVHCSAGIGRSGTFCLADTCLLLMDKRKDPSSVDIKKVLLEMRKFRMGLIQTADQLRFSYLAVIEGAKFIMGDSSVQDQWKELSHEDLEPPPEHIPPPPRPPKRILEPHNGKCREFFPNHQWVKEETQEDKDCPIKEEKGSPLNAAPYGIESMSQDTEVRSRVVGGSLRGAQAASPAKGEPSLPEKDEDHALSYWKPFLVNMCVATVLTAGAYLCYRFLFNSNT
Description: Binding affinity to PTP1B (unknown origin) using pNPP as substrate incubated for 60 mins by fluorescence based analysis

[6] = target: T1, Tyrosine-protein phosphatase non-receptor type 2; remark: listed apart in the source
Description: Binding affinity to PTPN2 (unknown origin) assessed as inhibition constant

[7] = target: T1, Tyrosine-protein phosphatase non-receptor type 2; remark: listed apart in the source
Description: Inhibition of PTPN2 (unknown origin) using pNPP as substrate measured for 60 mins by fluorescence based analysis

[8] = target: T2, Tyrosine-protein phosphatase non-receptor type 1; remark: listed apart in the source
Description: Binding affinity to PTP1B (unknown origin) assessed as inhibition constant

[9] = target: T2, Tyrosine-protein phosphatase non-receptor type 1; remark: listed apart in the source
Description: Inhibition of C-terminal recombinant PTP1B (1 to 405 residues) (unknown origin) using pNPP as substrate incubated for 30 mins by fluorescence based analysis

[10] = target: T2, Tyrosine-protein phosphatase non-receptor type 1; remark: listed apart in the source
Description: Inhibition of PTP1B (unknown origin)

[11] = target: T2, Tyrosine-protein phosphatase non-receptor type 1; remark: listed apart in the source
Description: Inhibition of PTP1B (unknown origin) by mobility shift assay

B16-F10 [12] = assay: cells; details: Mus musculus
Description: Antiproliferative activity against mouse B16-F10 cells

[13] = target: T1, Tyrosine-protein phosphatase non-receptor type 2; remark: listed apart in the source
Description: Inhibition of PTPN2 (unknown origin) by mobility shift assay

[14] = target: T1, Tyrosine-protein phosphatase non-receptor type 2; remark: listed apart in the source
Description: Binding affinity to PTPN2 (unknown origin) assessed as dissociation constant by SPR assay

cells = details: Homo sapiens, B16
Description: Inhibition of PTPN2/PTPN1 (unknown origin) in mouse B16 cells assessed as inhibition of IFNgamma-mediated STAT1 phosphorylation

Protein cereblon/Tyrosine-protein phosphatase non-receptor type 2, sequence (Q96SW2 whole entry, one chain of several): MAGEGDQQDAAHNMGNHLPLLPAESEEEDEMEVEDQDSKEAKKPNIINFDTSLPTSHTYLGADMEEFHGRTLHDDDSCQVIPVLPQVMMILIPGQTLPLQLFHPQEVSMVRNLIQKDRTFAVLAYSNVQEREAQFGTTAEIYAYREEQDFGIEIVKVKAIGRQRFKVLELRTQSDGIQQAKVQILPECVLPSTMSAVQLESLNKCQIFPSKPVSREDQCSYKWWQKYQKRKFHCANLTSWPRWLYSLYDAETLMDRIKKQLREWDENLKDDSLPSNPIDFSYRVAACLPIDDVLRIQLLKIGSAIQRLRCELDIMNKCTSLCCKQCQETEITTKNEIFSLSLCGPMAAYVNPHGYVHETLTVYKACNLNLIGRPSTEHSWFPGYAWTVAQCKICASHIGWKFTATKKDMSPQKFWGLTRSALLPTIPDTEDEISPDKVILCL

IC50 [1]: 950 nM
Structure (SMILES): CC(C)(C)C(=O)Nc1ccc2c(c1)C(=O)C(=O)c1ccccc1-2

Structure (SMILES): CC1(C)C[C@@H](Nc2cccc(-c3sc(C(=O)O)c(OCC(=O)O)c3Cl)c2)CCN1S(=O)(=O)Cc1cccc(NC(=O)N2CCC(c3ccc4c5c(cccc35)C(=O)N4[C@H]3CCC(=O)NC3=O)CC2)c1
DC50 [2]: 44 nM | inhibition in vivo at 10 mg/kg (B16-F10 [3]): 98%

Structure (SMILES): CCc1ccc(C(=O)NCCCC[C@H](NC(=O)[C@H](Cc2ccc(C(F)(F)P(=O)(O)O)cc2)NC(=O)[C@@H](CC(=O)COC2CC(C)CCC2C(C)C)Cc2ccccc2)C(N)=O)cc1 (stereo partly drawn)
IC50 [4]: 9.2 nM | Ki [5]: 34 nM | Ki [6]: 4.3 nM | IC50 [7]: 9.2 nM | Ki [8]: 34 nM

IC50 [9]: 7700 nM | IC50 [10]: 27000 nM
Structure (SMILES): C=C(C)[C@@H]1CC[C@@H](C)[C@@H]2CCC(C)=C[C@@H]21

Structure (SMILES): CC(C)CCN[C@H]1CCc2cc(O)c(N3CC(=O)NS3(=O)=O)c(F)c2C1
IC50 [11]: 10 nM | IC50 (B16-F10 [12]): 1000 nM | IC50 [13]: 10 nM

DC50 [2]: 44 nM | Kd [14]: 52 nM
Structure (SMILES): Cn1c(=O)n(C2CCC(=O)NC2=O)c2ccc(C3CCN(C(=O)Nc4cccc(CS(=O)(=O)N5CC[C@H](Nc6cccc(-c7sc(C(=O)O)c(OCC(=O)O)c7Cl)c6)CC5(C)C)c4)CC3)cc21 (stereo partly drawn)

Structure (SMILES): CC(C)CCN[C@@H]1CCc2cc(O)c(N3CC(=O)NS3(=O)=O)c(F)c2C1 [OSUNPROTAFIB]
IC50 (B16-F10 [12]): 64 nM | IC50 [13]: 2.8 nM | EC50 (cells): 180 nM
